Assay results taken from patent US20250090540A1, “PI3K-ALPHA INHIBITORS AND METHODS OF USE THEREOF” (Relay Therapeutics, Inc., priority 2021, published 2025).
Like-named read-outs stand apart in the source and are kept apart here.

Molecular target: H1047R PIK3CA enzyme (Homo sapiens, UniProt P42336, H1047R)
Assay: ADP-Glo Biochemical PIK3CA Kinase Assay
[1] = ADP-Glo biochemical PIK3CA kinase assay

Sequence of H1047R PIK3CA enzyme (P42336 whole entry H1047R): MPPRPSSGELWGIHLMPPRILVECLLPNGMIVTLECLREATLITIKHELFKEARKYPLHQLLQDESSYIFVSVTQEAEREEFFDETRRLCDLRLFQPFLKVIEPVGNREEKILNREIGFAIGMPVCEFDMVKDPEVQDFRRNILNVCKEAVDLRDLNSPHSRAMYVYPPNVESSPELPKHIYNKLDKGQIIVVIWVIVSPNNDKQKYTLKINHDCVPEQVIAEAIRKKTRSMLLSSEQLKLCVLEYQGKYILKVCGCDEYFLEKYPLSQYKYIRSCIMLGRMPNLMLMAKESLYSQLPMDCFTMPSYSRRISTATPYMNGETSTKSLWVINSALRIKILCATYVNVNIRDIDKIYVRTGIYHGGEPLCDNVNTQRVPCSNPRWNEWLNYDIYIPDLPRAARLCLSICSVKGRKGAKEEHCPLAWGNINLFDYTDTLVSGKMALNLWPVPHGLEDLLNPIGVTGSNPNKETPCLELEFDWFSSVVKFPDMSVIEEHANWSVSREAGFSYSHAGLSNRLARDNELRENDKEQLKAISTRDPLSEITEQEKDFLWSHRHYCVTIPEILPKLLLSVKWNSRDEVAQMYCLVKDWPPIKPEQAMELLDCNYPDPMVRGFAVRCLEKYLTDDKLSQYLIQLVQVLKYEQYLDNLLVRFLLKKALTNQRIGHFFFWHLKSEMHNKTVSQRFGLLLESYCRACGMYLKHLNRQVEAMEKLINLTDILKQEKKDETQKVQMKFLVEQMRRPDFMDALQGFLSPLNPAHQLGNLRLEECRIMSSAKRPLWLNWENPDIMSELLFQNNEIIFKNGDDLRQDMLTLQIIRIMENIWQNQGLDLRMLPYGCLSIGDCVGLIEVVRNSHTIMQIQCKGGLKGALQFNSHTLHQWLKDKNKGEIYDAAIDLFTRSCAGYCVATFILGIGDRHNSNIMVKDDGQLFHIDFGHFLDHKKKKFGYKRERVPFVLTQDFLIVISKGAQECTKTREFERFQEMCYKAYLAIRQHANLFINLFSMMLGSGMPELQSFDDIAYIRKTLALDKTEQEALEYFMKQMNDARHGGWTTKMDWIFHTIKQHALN
Sequence of H1047R PIK3CA enzyme (P27986 whole entry partner): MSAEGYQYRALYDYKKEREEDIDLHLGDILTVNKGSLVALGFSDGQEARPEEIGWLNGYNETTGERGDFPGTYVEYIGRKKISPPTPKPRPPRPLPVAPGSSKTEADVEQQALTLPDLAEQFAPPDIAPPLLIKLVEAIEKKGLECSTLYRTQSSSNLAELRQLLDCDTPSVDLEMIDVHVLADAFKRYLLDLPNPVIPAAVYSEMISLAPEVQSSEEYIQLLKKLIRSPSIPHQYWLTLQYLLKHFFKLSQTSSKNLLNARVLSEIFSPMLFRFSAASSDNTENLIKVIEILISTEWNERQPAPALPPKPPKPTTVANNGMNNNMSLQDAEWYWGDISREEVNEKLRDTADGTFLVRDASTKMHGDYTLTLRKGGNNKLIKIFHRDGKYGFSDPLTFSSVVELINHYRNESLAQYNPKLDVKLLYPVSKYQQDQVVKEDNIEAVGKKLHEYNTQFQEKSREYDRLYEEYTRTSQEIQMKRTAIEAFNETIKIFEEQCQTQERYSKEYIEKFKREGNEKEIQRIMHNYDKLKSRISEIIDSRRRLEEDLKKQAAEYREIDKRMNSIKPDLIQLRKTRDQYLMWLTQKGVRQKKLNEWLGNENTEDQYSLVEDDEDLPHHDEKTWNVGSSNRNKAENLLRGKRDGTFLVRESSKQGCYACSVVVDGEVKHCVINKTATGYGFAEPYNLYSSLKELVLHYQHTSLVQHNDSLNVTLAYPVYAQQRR

Row | IC50 [µM] | IC50 [1] [µM] | Structure (SMILES)
1 |  | 10 to 100 | CNC(=O)c1cnc(Nc2ccccc2C)c(NC(=O)c2cnn3cc(F)ccc23)c1 [I-420]
2 |  | 1 to 10 | CNC(=O)c1cnc(Nc2ccccc2C)c(NC(=O)c2cccc3cc(C)[nH]c23)c1 [I-421]
3 |  | 10 to 100 | CNC(=O)c1cnc(Nc2ccccc2C)c(NC(=O)c2cn3c(F)cccc3n2)c1 [I-422]
4 |  | 1 to 10 | CNC(=O)c1cnc(Nc2ccccc2C)c(NC(=O)c2cc(C)cc3cc[nH]c23)c1 [I-423]
5 |  | 10 to 100 | CNC(=O)c1cnc(Nc2ccccc2C)c(NC(=O)c2cc3cc(F)ccc3[nH]2)c1 [I-425]
6 |  | 1 to 10 | CNC(=O)c1cnc(Nc2ccccc2C)c(NC(=O)c2n[nH]c3cccc(F)c23)c1 [I-426]
7 |  | 10 to 100 | CNC(=O)c1cnc(Nc2ccccc2C)c(NC(=O)c2nc3ccccn3c2C)c1 [I-427]
8 |  | 10 to 100 | CNC(=O)c1cnc(Nc2ccccc2C)c(NC(=O)C(C)n2ccccc2=O)c1 (centres unmarked) [I-428]
9 |  | 10 to 100 | CNC(=O)c1cnc(Nc2ccccc2C)c(NC(=O)c2cc3cc[nH]c3cc2F)c1 [I-429]
10 |  | 10 to 100 | CNC(=O)c1cnc(Nc2ccccc2C)c(NC(=O)c2cnn3cccc(OC)c23)c1 [I-430]
11 |  | 10 to 100 | CNC(=O)c1cnc(Nc2ccccc2C)c(NC(=O)c2ccc3c(cnn3C)c2)c1 [I-431]
12 |  | 10 to 100 | CNC(=O)c1cnc(Nc2ccccc2C)c(NC(=O)c2cc(C(F)(F)F)ccn2)c1 [I-432]
13 |  | 10 to 100 | Cc1ccccc1CNc1cccc(=O)n1Cc1ccccc1C [I-433]
14 |  | 10 to 100 | CNC(=O)c1cnc(Nc2ccccc2C)c(NC(=O)CCc2ccccc2F)c1 [I-437]
15 |  | 10 to 100 | CNC(=O)c1cnc(Nc2ccccc2C)c(NC(=O)c2ccnc3c(F)cccc23)c1 [I-438]
16 |  | 10 to 100 | CNC(=O)c1cnc(Nc2ccccc2C)c(NC(=O)c2nn(C)c(C3CC3)c2F)c1 [I-439]
17 |  | 10 to 100 | CNC(=O)c1cnc(Nc2ccccc2C)c(NC(=O)c2cc3c(C)cccc3[nH]2)c1 [I-440]
18 |  | 10 to 100 | CNC(=O)c1cnc(Nc2ccccc2C)c(NC(=O)C2CCCCC2(F)F)c1 (centres unmarked) [I-441]
19 |  | 10 to 100 | CNC(=O)c1cnc(Nc2ccccc2C)c(NC(=O)c2cc3cccc(F)c3s2)c1 [I-442]
20 |  | 10 to 100 | CNC(=O)c1cnc(Nc2ccccc2C)c(NC(=O)c2cccnc2CS(C)(=O)=O)c1 [I-443]
21 |  | 10 to 100 | CNC(=O)c1cnc(Nc2ccccc2C)c(NC(=O)c2ccnc3ccc(Br)cc23)c1 [I-444]
22 |  | 10 to 100 | CNC(=O)c1cnc(Nc2ccccc2C)c(NC(=O)c2cccc(Cl)c2C)c1 [I-445]
23 |  | 10 to 100 | CC#CCC(C(=O)Nc1cc(C(=O)NC)cnc1Nc1ccccc1C)c1ccccc1 (centres unmarked) [I-446]
24 |  | 10 to 100 | CNC(=O)c1cnc(Nc2ccccc2C)c(NC(=O)c2ccc3c(c2)COC3)c1 [I-447]
25 |  | 10 to 100 | CNC(=O)c1cnc(Nc2ccccc2C)c(NC(=O)c2cc(=O)[nH]c3ccccc23)c1 [I-448]
26 |  | 0.1 to 0.5 | CNC(=O)c1cnc(Nc2ccccc2C)c(NC(=O)c2cc(Cl)n3ccccc23)c1 [I-449]

Row | IC50 [µM] | IC50 [1] [µM] | Structure (SMILES)
27 |  | 10 to 100 | CNC(=O)c1cnc(Nc2ccccc2C)c(NC(=O)c2cc(C)nn2C(F)F)c1 [I-450]
28 |  | 10 to 100 | CNC(=O)c1cnc(Nc2ccccc2C)c(NC(=O)c2cnc3cc(F)ccn23)c1 [I-451]
29 |  | 10 to 100 | CNC(=O)c1cnc(Nc2ccccc2C)c(NC(=O)c2cc3c(Cl)cncc3s2)c1 [I-452]
30 |  | 10 to 100 | CNC(=O)c1cnc(Nc2ccccc2C)c(NC(=O)c2ccc3ccccc3c2Br)c1 [I-453]
31 |  | 10 to 100 | CNC(=O)c1cnc(Nc2ccccc2C)c(NC(=O)c2cccc(OC)c2F)c1 [I-454]
32 |  | 10 to 100 | CNC(=O)c1cnc(Nc2ccccc2C)c(NC(=O)c2n[nH]c3ccc(C#N)cc23)c1 [I-455]
33 |  | 1 to 10 | CNC(=O)c1cnc(Nc2ccccc2C)c(NC(=O)c2cc3cccc(Cl)c3s2)c1 [I-456]
34 |  | 10 to 100 | CNC(=O)c1cnc(Nc2ccccc2C)c(NC(=O)CCc2c[nH]c3ccc(F)cc23)c1 [I-459]
35 |  | 10 to 100 | CNC(=O)c1cnc(Nc2ccccc2C)c(NC(=O)c2cc(Br)cc3ccccc23)c1 [I-461]
36 |  | 10 to 100 | CNC(=O)c1cnc(Nc2ccccc2C)c(NC(=O)c2cc3c(Cl)cccn3c2)c1 [I-462]
37 |  | 10 to 100 | CNC(=O)c1cnc(Nc2ccccc2C)c(NC(=O)c2onc3c2CCCC3)c1 [I-463]
38 |  | 10 to 100 | CNC(=O)c1cnc(Nc2ccccc2C)c(NC(=O)C2CCCC3CCCCC32)c1 (centres unmarked) [I-464]
39 |  | 10 to 100 | CCc1c(Cl)c(C(=O)Nc2cc(C(=O)NC)cnc2Nc2ccccc2C)nn1C [I-465]
40 |  | 10 to 100 | CNC(=O)c1cnc(Nc2ccccc2C)c(NC(=O)c2cccc(C#N)c2Cl)c1 [I-466]
41 |  | 10 to 100 | CNC(=O)c1cnc(Nc2ccccc2C)c(NC(=O)Cc2c[nH]c3cc(F)c(F)cc23)c1 [I-467]
42 |  | 10 to 100 | CNC(=O)c1cnc(Nc2ccccc2C)c(NC(=O)c2cnc3ccc(F)cn23)c1 [I-469]
43 |  | 10 to 100 | CNC(=O)c1cnc(Nc2ccccc2C)c(NC(=O)c2cc(Cl)cc3cccnc23)c1 [I-470]
44 |  | 10 to 100 | CNC(=O)c1cnc(Nc2ccccc2C)c(NC(=O)C(C)Cc2ccc(F)cc2)c1 (centres unmarked) [I-471]
45 |  | 10 to 100 | CNC(=O)c1cnc(Nc2ccccc2C)c(NC(=O)c2nn(C)c3c2CCC3)c1 [I-472]
46 |  | 10 to 100 | CNC(=O)c1cnc(Nc2ccccc2C)c(NC(=O)c2cn[nH]c2-c2ccc(F)cc2)c1 [I-473]
47 |  | 10 to 100 | CNC(=O)c1cnc(Nc2ccccc2C)c(NC(=O)c2cccc3c2OC(C)(C)CC3)c1 [I-474]
48 |  | 1 to 10 | CNC(=O)c1cnc(Nc2ccccc2C)c(NC(=O)C2(c3cccc(F)c3)CC2)c1 [I-475]
49 |  | 10 to 100 | CNC(=O)c1cnc(Nc2ccccc2C)c(NC(=O)c2cc(Br)cc(C(C)C)c2)c1 [I-476]
50 |  | 10 to 100 | CNC(=O)c1cnc(Nc2ccccc2C)c(NC(=O)C2CCc3cccc(Cl)c32)c1 (centres unmarked) [I-477]
51 |  | 10 to 100 | CNC(=O)c1cnc(Nc2ccccc2C)c(NC(=O)c2cc(C)cc(OC)c2)c1 [I-478]
52 |  | 10 to 100 | CNC(=O)c1cnc(Nc2ccccc2C)c(NC(=O)c2ccc(F)c(C)c2Cl)c1 [I-479]

Further lines, the molecule ahead of its results:

Row | Structure (SMILES) | IC50 [µM] | IC50 [1] [µM]
53 | CNC(=O)c1cnc(Nc2ccccc2C)c(NC(=O)c2cc(C)n(C(F)F)n2)c1 [I-369] | 10 to 100 | 
54 | CNC(=O)c1cnc(Nc2ccccc2C)c(NC(=O)c2c[nH]c3cccc(OC)c23)c1 [I-370] | 10 to 100 | 
55 | CNC(=O)c1cnc(Nc2ccccc2C)c(NC(=O)c2cccnc2C(F)(F)F)c1 [I-371] | 10 to 100 | 
56 | CNC(=O)c1cnc(Nc2ccccc2C)c(NC(=O)c2nccnc2C(F)(F)F)c1 [I-372] | 10 to 100 | 
57 | CNC(=O)c1cnc(Nc2ccccc2C)c(NC(=O)Cc2cc(C)cc(F)c2)c1 [I-373] | 10 to 100 | 
58 | CNC(=O)c1cnc(Nc2ccccc2C)c(NC(=O)c2cn3ccccc3n2)c1 [I-374] | 10 to 100 | 
59 | CCn1nc(C(=O)Nc2cc(C(=O)NC)cnc2Nc2ccccc2C)c2ccccc21 [I-375] | 10 to 100 | 
60 | CNC(=O)c1cnc(Nc2ccccc2C)c(NC(=O)c2cccc(C(F)(F)F)n2)c1 [I-376] | 10 to 100 | 
61 | CNC(=O)c1cnc(Nc2ccccc2C)c(NC(=O)c2cn3c(Cl)cccc3n2)c1 [I-377] | 10 to 100 | 
62 | CNC(=O)c1cnc(Nc2ccccc2C)c(NC(=O)c2ccc(F)c(F)c2OC)c1 [I-378] | 10 to 100 | 
63 | CNC(=O)c1cnc(Nc2ccccc2C)c(NC(=O)c2cccc(C#N)n2)c1 [I-379] | 10 to 100 | 
64 | CNC(=O)c1cnc(Nc2ccccc2C)c(NC(=O)c2cn3c(C(F)(F)F)cccc3n2)c1 [I-380] | 10 to 100 | 
65 | CNC(=O)c1cnc(Nc2ccccc2C)c(NC(=O)CC2COc3ccccc3O2)c1 (centres unmarked) [I-381] | 10 to 100 | 
66 | CNC(=O)c1cnc(Nc2ccccc2C)c(NC(=O)c2ccc(Cl)c(C#N)c2)c1 [I-382] | 10 to 100 | 
67 | CNC(=O)c1cnc(Nc2ccccc2C)c(NC(=O)c2n[nH]c3c(F)cccc23)c1 [I-383] | 10 to 100 | 
68 | CNC(=O)c1cnc(Nc2ccccc2C)c(NC(=O)CCc2cnccc2C(F)(F)F)c1 [I-384] | 10 to 100 | 
69 | CNC(=O)c1cnc(Nc2ccccc2C)c(NC(=O)c2cnn(C)c2C(F)(F)F)c1 [I-385] | 10 to 100 | 
70 | CNC(=O)c1cnc(Nc2ccccc2C)c(NC(=O)C2CCNc3ccccc32)c1 (centres unmarked) [I-386] | 10 to 100 | 
71 | CNC(=O)c1cnc(Nc2ccccc2C)c(NC(=O)CC2OCCc3ccccc32)c1 (centres unmarked) [I-387] | 10 to 100 | 

Row | Structure (SMILES) | IC50 [µM] | IC50 [1] [µM]
72 | CNC(=O)c1cnc(Nc2ccccc2C)c(NC(=O)c2cncc(C(F)(F)F)c2)c1 [I-388] | 10 to 100 | 
73 | CNC(=O)c1cnc(Nc2ccccc2C)c(NC(=O)c2cc(F)cc(S(N)(=O)=O)c2)c1 [I-389] | 10 to 100 | 
74 | CNC(=O)c1cnc(Nc2ccccc2C)c(NC(=O)c2ccc(OC(F)(F)F)c(F)c2)c1 [I-391] | 10 to 100 | 
75 | CNC(=O)c1cnc(Nc2ccccc2C)c(NC(=O)c2cc(F)cc3[nH]ccc23)c1 [I-392] | 10 to 100 | 
76 | CNC(=O)c1cnc(Nc2ccccc2C)c(NC(=O)c2cc(F)c3[nH]ncc3c2)c1 [I-393] | 10 to 100 | 
77 | CNC(=O)c1cnc(Nc2ccccc2C)c(NC(=O)c2cc(F)c3cc[nH]c3c2)c1 [I-394] | 10 to 100 | 
78 | CNC(=O)c1cnc(Nc2cccnc2OC)c(NC(=O)c2csc3ccccc23)c1 [I-400] |  | 10 to 100
79 | CNC(=O)c1cnc(Nc2cccc(OC)c2)c(NC(=O)c2csc3ccccc23)c1 [I-401] |  | 1 to 10
80 | CNC(=O)c1cnc(Nc2ccccc2C)c(NC(=O)c2csc3c2CCC(C)(C)C3)c1 [I-403] |  | 10 to 100
81 | CNC(=O)c1cnc(Nc2ccccc2C)c(NC(=O)c2csc3cc(F)cc(F)c23)c1 [I-404] |  | 10 to 100
82 | CNC(=O)c1cnc(Nc2ccccc2C)c(NC(=O)Cc2csc3ccccc23)c1 [I-410] |  | 10 to 100
83 | CNC(=O)c1cnc(Nc2ccccc2C)c(NC(=O)c2cnc3c(Cl)cccn23)c1 [I-414] |  | 10 to 100
84 | CNC(=O)c1cnc(Nc2ccccc2C)c(NC(=O)c2nc3ccccn3c2F)c1 [I-415] |  | 10 to 100
85 | CNC(=O)c1cnc(Nc2ccccc2C)c(NC(=O)c2cnc(O)cc2C(F)(F)F)c1 [I-416] |  | 10 to 100
86 | CNC(=O)c1cnc(Nc2ccccc2C)c(NC(=O)c2cn(C)nc2C(F)F)c1 [I-417] |  | 10 to 100
87 | CNC(=O)c1cnc(Nc2ccccc2C)c(NC(=O)c2cc(C)c3ccccc3n2)c1 [I-418] |  | 10 to 100
88 | CNC(=O)c1cnc(Nc2ccccc2C)c(NC(=O)c2cc(C)cc3cccnc23)c1 [I-419] |  | 1 to 10
89 | CNC(=O)c1cnc(Nc2ccccc2C)c(NC(=O)c2nn(C(C)C)c3ccccc23)c1 [I-457] |  | 10 to 100
